Values after ≈ are worked out from the molar mass of the structure shown. Active and inactive are the calls of the source. The rule behind the calls is not given here.
Columns and labels:
DLA [1] = experiment: Induction of apoptosis in Swiss albino mouse DLA cells assessed as nuclear fragmentation at 25,50 and 100 ug/ml after 12 hrs by AO/EtBr staining based fluorescence microscopic analysis; format: functional, cell-based
DLA [2] = experiment: Induction of apoptosis in Swiss albino mouse DLA cells assessed as cytoplasmic vacuoles at 50 and 100 ug/ml after 12 hrs by AO/EtBr staining based fluorescence microscopic analysis; format: functional, cell-based
DLA [3] = experiment: Induction of apoptosis in Swiss albino mouse DLA cells assessed as nucleolus pyknosis at 50 and 100 ug/ml after 12 hrs by AO/EtBr staining based fluorescence microscopic analysis; format: functional, cell-based
[4] = Induction of apoptosis in Swiss albino mouse DLA cells at 100 ug/ml after 12 hrs by AO/EtBr staining based fluorescence microscopic analysis; format: functional
Bacillus subtilis = experiment: Antibacterial activity against clinical isolate Gram-positive Bacillus subtilis after 24 hrs by agar diffusion assay; format: functional
DLA [5] = experiment: Induction of apoptosis in Swiss albino mouse DLA cells assessed as cell shrinkage at 25,50 and 100 ug/ml after 12 hrs by AO/EtBr staining based fluorescence microscopic analysis; format: functional
DLA [6] = experiment: Induction of apoptosis in Swiss albino mouse DLA cells assessed as nuclear fragmentation at 50 and 100 ug/ml after 12 hrs by AO/EtBr staining based fluorescence microscopic analysis; format: functional, cell-based
DLA [7] = experiment: Induction of apoptosis in Swiss albino mouse DLA cells assessed as membrane blebbing at 25,50 and 100 ug/ml after 12 hrs by AO/EtBr staining based fluorescence microscopic analysis; format: functional, cell-based
DLA [8] = experiment: Induction of apoptosis in Swiss albino mouse DLA cells assessed as chromatin condensation at 25,50 and 100 ug/ml after 12 hrs by AO/EtBr staining based fluorescence microscopic analysis; format: functional, cell-based
Proteus vulgaris = experiment: Antibacterial activity against clinical isolates Proteus vulgaris after 24 hrs by agar diffusion assay; format: functional
Pseudomonas syringae = experiment: Antibacterial activity against clinical isolate Gram-negative Pseudomonas syringae after 24 hrs by agar diffusion assay; format: functional
Escherichia coli = experiment: Antibacterial activity against clinical isolates Escherichia coli after 24 hrs by agar diffusion assay; format: functional
Staphylococcus aureus = experiment: Antibacterial activity against clinical isolates Staphylococcus aureus after 24 hrs by agar diffusion assay; format: functional

Row | SMILES | Activity (DLA [1]) | Activity (DLA [2]) | Activity (DLA [3]) | Activity [4] | MIC (Bacillus subtilis) | Activity (DLA [5]) | Activity (DLA [6]) | Activity (DLA [7]) | Activity (DLA [8]) | MIC (Proteus vulgaris) | MIC (Pseudomonas syringae) | MIC (Escherichia coli) | MIC (Staphylococcus aureus)
1 | COc1ccc([C@H](c2c(C)[nH][nH]c2=O)c2c(O)[nH]c(=O)[nH]c2=O)cc1 | Active | Active | Active | 15% | 100 µg/mL (≈ 290 µM) | Active | Active | Active | Active | 100 µg/mL (≈ 290 µM) |  |  | 
2 | Cc1[nH][nH]c(=O)c1[C@@H](c1ccc(F)cc1)c1c(O)[nH]c(=S)[nH]c1=O | Active |  |  |  |  | Active |  | Active | Active |  |  |  | 
3 | COc1ccccc1[C@H](c1c(C)[nH][nH]c1=O)c1c(O)[nH]c(=O)[nH]c1=O | Active |  |  |  | 100 µg/mL (≈ 290 µM) | Active |  | Active | Active | 100 µg/mL (≈ 290 µM) | 100 µg/mL (≈ 290 µM) | 100 µg/mL (≈ 290 µM) | 100 µg/mL (≈ 290 µM)
4 | CCCC[C@H](c1c(C)[nH][nH]c1=O)c1c(O)[nH]c(=O)[nH]c1=O | Active |  |  |  |  | Active |  | Active | Active |  |  |  | 
5 | Cc1[nH][nH]c(=O)c1[C@@H](c1ccc(Cl)cc1)c1c(O)[nH]c(=S)[nH]c1=O | Active |  |  |  | 100 µg/mL (≈ 274 µM) | Active |  | Active | Active | 100 µg/mL (≈ 274 µM) |  |  | 
6 | CCC[C@H](c1c(C)[nH][nH]c1=O)c1c(O)[nH]c(=S)[nH]c1=O | Active |  |  |  | 100 µg/mL (≈ 337 µM) | Active |  | Active | Active |  |  |  | 
7 | Cc1[nH][nH]c(=O)c1[C@@H](c1ccc(Cl)cc1)c1c(O)[nH]c(=O)[nH]c1=O | Active | Active | Active | 18% | 25 µg/mL (≈ 71.7 µM) | Active | Active | Active | Active | 100 µg/mL (≈ 287 µM) |  |  | 
8 | Cc1[nH][nH]c(=O)c1[C@@H](c1ccccc1Cl)c1c(O)[nH]c(=O)[nH]c1=O | Active |  |  |  | 100 µg/mL (≈ 287 µM) | Active |  | Active | Active | 100 µg/mL (≈ 287 µM) | 100 µg/mL (≈ 287 µM) | 100 µg/mL (≈ 287 µM) | 100 µg/mL (≈ 287 µM)
9 | Cc1[nH][nH]c(=O)c1[C@@H](c1ccccc1)c1c(O)[nH]c(=S)[nH]c1=O | Active |  |  |  |  | Active |  | Active | Active |  |  |  | 
10 | Cc1[nH][nH]c(=O)c1[C@@H](c1cccc([N+](=O)[O-])c1)c1c(O)[nH]c(=S)[nH]c1=O | Active |  |  |  |  | Active |  | Active | Active |  |  |  | 
11 | Cc1[nH][nH]c(=O)c1[C@@H](c1cccnc1)c1c(O)[nH]c(=O)[nH]c1=O | Active |  |  |  | 100 µg/mL (≈ 317 µM) | Active |  | Active | Active |  |  |  | 
12 | CCOC(=O)[C@H](c1c(C)[nH][nH]c1=O)c1c(O)[nH]c(=O)[nH]c1=O | Active | Active | Active | 23% | 100 µg/mL (≈ 322 µM) | Active | Active | Active | Active | 100 µg/mL (≈ 322 µM) | 100 µg/mL (≈ 322 µM) | 100 µg/mL (≈ 322 µM) | 100 µg/mL (≈ 322 µM)
13 | Cc1[nH][nH]c(=O)c1[C@@H](c1cccc([N+](=O)[O-])c1)c1c(O)[nH]c(=O)[nH]c1=O | Active | Active | Active | 15% | 100 µg/mL (≈ 278 µM) | Active | Active | Active | Active | 100 µg/mL (≈ 278 µM) |  |  | 
14 | Cc1[nH][nH]c(=O)c1[C@@H](c1ccccc1)c1c(O)[nH]c(=O)[nH]c1=O | Active |  |  |  | 100 µg/mL (≈ 318 µM) | Active |  | Active | Active | 100 µg/mL (≈ 318 µM) |  |  | 
15 | CCC[C@H](c1c(C)[nH][nH]c1=O)c1c(O)[nH]c(=O)[nH]c1=O | Active | Active | Active | 12% | 100 µg/mL (≈ 357 µM) | Active | Active | Active | Active |  |  |  | 
16 | NC[C@H]1O[C@H](O[C@H]2[C@H](O)[C@@H](O[C@H]3O[C@H](CO)[C@@H](O)[C@H](N)[C@H]3O)[C@H](N)C[C@@H]2N)[C@H](O)[C@@H](O)[C@@H]1O [KANAMYCIN] |  |  |  |  | 5 µg/mL (≈ 10.3 µM) |  |  |  |  | 5 µg/mL (≈ 10.3 µM) | 10 µg/mL (≈ 20.6 µM) | 5 µg/mL (≈ 10.3 µM) | 80 µg/mL (≈ 165 µM)
17 | Cc1[nH][nH]c(=O)c1[C@@H](c1cccc(O)c1)c1c(O)[nH]c(=O)[nH]c1=O | Active |  |  |  | 25 µg/mL (≈ 75.7 µM) | Active |  | Active | Active | 100 µg/mL (≈ 303 µM) |  |  | 100 µg/mL (≈ 303 µM)
18 | Cc1[nH][nH]c(=O)c1[C@@H](c1ccc(F)cc1)c1c(O)[nH]c(=O)[nH]c1=O | Active |  |  |  | 100 µg/mL (≈ 301 µM) | Active |  | Active | Active | 100 µg/mL (≈ 301 µM) | 25 µg/mL (≈ 75.2 µM) |  | 
19 | Cc1[nH][nH]c(=O)c1[C@@H](c1cccc(Br)c1)c1c(O)[nH]c(=O)[nH]c1=O | Active | Active | Active | 13% | 25 µg/mL (≈ 63.6 µM) | Active | Active | Active | Active | 100 µg/mL (≈ 254 µM) | 100 µg/mL (≈ 254 µM) |  | 
20 | Cc1[nH][nH]c(=O)c1[C@@H](c1ccc([N+](=O)[O-])cc1)c1c(O)[nH]c(=O)[nH]c1=O | Active | Active | Active | 12% | 100 µg/mL (≈ 278 µM) | Active | Active | Active | Active | 100 µg/mL (≈ 278 µM) |  |  | 
21 | Cc1[nH][nH]c(=O)c1[C@@H](c1ccccc1[N+](=O)[O-])c1c(O)[nH]c(=O)[nH]c1=O | Active |  |  |  | 100 µg/mL (≈ 278 µM) | Active |  | Active | Active | 100 µg/mL (≈ 278 µM) | 100 µg/mL (≈ 278 µM) | 100 µg/mL (≈ 278 µM) | 
22 | CC1(C)S[C@@H]2[C@H](NC(=O)[C@H](N)c3ccccc3)C(=O)N2[C@H]1C(=O)O [AMPICILLIN] |  |  |  |  | 5 µg/mL (≈ 14.3 µM) |  |  |  |  | 5 µg/mL (≈ 14.3 µM) | 5 µg/mL (≈ 14.3 µM) | 5 µg/mL (≈ 14.3 µM) | 5 µg/mL (≈ 14.3 µM)
